From patent US20230416203A1, “POTENT AND SELECTIVE INHIBITORS OF THE CALCIUM-ACTIVATED POTASSIUM CHANNEL, KCA3.1, FOR USE AS PLATFORM THERAPEUTICS” (priority 2020, published 2023)

Assay: Two-week non-GLP toxicology in mice (clinical signs, body weight, body weight gain, food consumption, hematology, clinical chemistry, organ weights, histopathology)
Details: for Organ weights relative to body weight (%), Adrenals / Organ weights relative to body weight (%), Brain / Organ weights relative to body weight (%), Heart / Organ weights relative to body weight (%), Kidneys / Organ weights relative to body weight (%), Liver / Organ weights relative to body weight (%), Ovaries / Organ weights relative to body weight (%), Spleen / Organ weights relative to body weight (%), Thymus / Organ weights relative to body weight (%), U / ALB / ALT / AST / BUN / Basophils / CREA / Eosinophils / GLU / HCT / HGB / LDLC / Lympthocytes / MCH / MCHC / MCV / Monocytes / Neutrophils / PLT / RBC / Reticuloxyte Count / TBIL / TGL / TP / Urea / WBC / Body weight gain (%) / ALP / Lymphocytes / Monosytes / Organ weights relative to body weight (%), Epididy / Organ weights relative to body weight (%), Testes / Organ weights relative to body weight (%), Thy: mean
[1] = 25 and 50 mg/kg BID, 2 weeks, mice
[2] = G2 25 mg/kg/BID oral, Treatment Day 1
[3] = G2 25 mg/kg/BID oral, Treatment Day 4
[4] = G2 25 mg/kg/BID oral, Treatment Day 8
[5] = G2 25 mg/kg/BID oral, Treatment Day 11
[6] = G2 25 mg/kg/BID oral, Treatment Day 14
[7] = G3 50 mg/kg/BID oral, Treatment Day 1
[8] = G3 50 mg/kg/BID oral, Treatment Day 4
[9] = G3 50 mg/kg/BID oral, Treatment Day 8
[10] = G3 50 mg/kg/BID oral, Treatment Day 11
[11] = G3 50 mg/kg/BID oral, Treatment Day 14
[12] = female mice, 25 mg/kg ROD oral, 2 weeks
[13] = female mice, 25 mg/kg/BID oral, 2 weeks
[14] = female mice, 25 mg/kg/BID oral, treatment day 1 to 4
[15] = female mice, 25 mg/kg/BID oral, treatment day 1 to 8
[16] = female mice, 25 mg/kg/BID oral, treatment day 1 to 11
[17] = female mice, 25 mg/kg/BID oral, treatment day 1 to 14
[18] = female mice, 50 mg/kg/BID oral, 2 weeks
[19] = female mice, 50 mg/kg/BID oral, treatment day 1 to 4
[20] = female mice, 50 mg/kg/BID oral, treatment day 1 to 8
[21] = female mice, 50 mg/kg/BID oral, treatment day 1 to 11
[22] = female mice, 50 mg/kg/BID oral, treatment day 1 to 14
[23] = female mice, 50 mg/kg:BID oral, 2 weeks
[24] = male mice, 25 mg/kg/BID oral, 2 weeks
[25] = male mice, 25 mg/kg/BID oral, treatment day 1 to 4
[26] = male mice, 25 mg/kg/BID oral, treatment day 1 to 8
[27] = male mice, 25 mg/kg/BID oral, treatment day 1 to 11
[28] = male mice, 25 mg/kg/BID oral, treatment day 1 to 14
[29] = male mice, 50 mg/kg/BID oral, 2 weeks
[30] = male mice, 50 mg/kg/BID oral, treatment day 1 to 4
[31] = male mice, 50 mg/kg/BID oral, treatment day 1 to 8
[32] = male mice, 50 mg/kg/BID oral, treatment day 1 to 11
[33] = male mice, 50 mg/kg/BID oral, treatment day 1 to 14
[34] = oral, twice daily, 25 and 50 mg/kg, 2 weeks, mice

Experimental: Each group contained 6 mice. The animals were analyzed throughout the study, and blood and tissues were analyzed at the end of the study.

Structure (SMILES): COC(=O)C1=CNC=C(C(=O)OC)C1c1ccc(F)c(C(F)(F)F)c1 [Compound 103, Dimethyl 4-(4-fluoro-3-(trifluoromethyl)phenyl)-1,4-dihydropyridine-3,5-dicarboxylate]
- decrease in white blood cells (WBC) (25 mg/kg and 50 mg/kg treated male and female mice, statistically significant): up to 3.4 fold
- Hematological assessment, other parameters [1]: No other toxicologically significant changes were detected
- Histopathology analysis [1]: did not detect any differences with controls
- Organ weights [1]: not altered
- gross pathology [1]: no obvious gross pathology
- Body weight of female mice, Mean [2]: 20.33
- Body weight of male mice, Mean [2]: 18.30
- Body weight of female mice, Mean [3]: 21.03
- Body weight of male mice, Mean [3]: 17.65
- Body weight of female mice, Mean [4]: 21.48
- Body weight of male mice, Mean [4]: 19.12
- Body weight of female mice, Mean [5]: 21.52
- Body weight of male mice, Mean [5]: 18.95
- Body weight of female mice, Mean [6]: 21.93
- Body weight of male mice, Mean [6]: 19.27
- Body weight of female mice, Mean [7]: 20.47
- Body weight of male mice, Mean [7]: 18.75
- Body weight of female mice, Mean [8]: 20.37
- Body weight of male mice, Mean [8]: 18.63
- Body weight of female mice, Mean [9]: 21.13
- Body weight of male mice, Mean [9]: 19.52
- Body weight of female mice, Mean [10]: 21.20
- Body weight of male mice, Mean [10]: 19.32
- Body weight of female mice, Mean [11]: 21.73
- Body weight of male mice, Mean [11]: 19.85
- Organ weights relative to body weight (%), Adrenals [12]: 0.038%
- Organ weights relative to body weight (%), Brain [12]: 2.217%
- Organ weights relative to body weight (%), Heart [12]: 0.990%
- Organ weights relative to body weight (%), Kidneys [12]: 1.379%
- Organ weights relative to body weight (%), Liver [12]: 6.436%
- Organ weights relative to body weight (%), Ovaries [12]: 0.077%
- Organ weights relative to body weight (%), Spleen [12]: 0.672*↑ %
- Organ weights relative to body weight (%), Thymus [12]: 0.200%
- Organ weights relative to body weight (%), U [12]: 0.321%
- ALB [13]: 2.60*↓ g/dL
- ALT [13]: 40.03 U/L
- AST [13]: 84.12 U/L
- BUN [13]: 19.24 mg/dL
- Basophils [13]: 0.00
- CREA [13]: 0.13 mg/dL
- Eosinophils [13]: 0.00
- GLU [13]: 153.02 mg/dL
- HCT [13]: 28.87%
- HGB [13]: 12.97 g/dL
- LDLC [13]: 9.31 mg/dL
- Lympthocytes [13]: 82.00
- MCH [13]: 21.10*↓ pg
- MCHC [13]: 44.93*↓ g/dL
- MCV [13]: 46.97*↑ fL
- Monocytes [13]: 1.00
- Neutrophils [13]: 17.00
- PLT [13]: 616.67 10^3/μl
- RBC [13]: 6.15
- Reticuloxyte Count [13]: 2.63
- TBIL [13]: 0.12 mg/dL
- TGL [13]: 48.73 mg/dL
- TP [13]: 4.12 g/dL
- Urea [13]: 41.23 mg/dL
- WBC [13]: 3.73*↓ 10^3/μl
- Food consumption, Average Feed Intake/Animal [14]: 9.4 g/animal
- Body weight gain (%) [14]: −3.53%
- Food consumption, Average Feed Intake/Animal [15]: 12.8 g/animal
- Body weight gain (%) [15]: 4.49%
- Food consumption, Average Feed Intake/Animal [16]: 10.3 g/animal
- Body weight gain (%) [16]: 3.54%
- Food consumption, Average Feed Intake/Animal [17]: 9.5 g/animal
- Body weight gain (%) [17]: 5.27%
- ALB [18]: 2.55*↓ g/dL
- ALP [18]: 254.38 U/L
- ALT [18]: 55.57 U/L
- AST [18]: 92.78 U/L
- BUN [18]: 22.71 mg/dL
- Basophils [18]: 0.00
- CREA [18]: 0.12 mg/dL
- Eosinophils [18]: 0.00
- GLU [18]: 165.87 mg/dL
- HCT [18]: 28.73%
- HGB [18]: 13.67 g/dL
- LDLC [18]: 8.23 mg/dL
- Lympthocytes [18]: 84.00
- MCH [18]: 21.23 pg
- MCHC [18]: 45.37*↓ g/dL
- MCV [18]: 46.83*↑ fL
- Monocytes [18]: 1.33
- Neutrophils [18]: 14.67
- PLT [18]: 733.00 10^3/μl
- RBC [18]: 6.14
- Reticuloxyte Count [18]: 2.67
- TBIL [18]: 0.14 mg/dL
- TGL [18]: 59.97 mg/dL
- TP [18]: 3.89 g/dL
- Urea [18]: 48.65 mg/dL
- WBC [18]: 2.17*↓ 10^3/μl
- Food consumption, Average Feed Intake/Animal [19]: 9.1 g/animal
- Body weight gain (%) [19]: −0.68%
- Food consumption, Average Feed Intake/Animal [20]: 12.8 g/animal
- Body weight gain (%) [20]: 4.10%
- Food consumption, Average Feed Intake/Animal [21]: 8.7 g/animal
- Body weight gain (%) [21]: 3.03%
- Food consumption, Average Feed Intake/Animal [22]: 9.8 g/animal
- Body weight gain (%) [22]: 5.87%
- Organ weights relative to body weight (%), Adrenals [23]: 0.035%
- Organ weights relative to body weight (%), Brain [23]: 2.175%
- Organ weights relative to body weight (%), Heart [23]: 0.532%
- Organ weights relative to body weight (%), Kidneys [23]: 1.375%
- Organ weights relative to body weight (%), Liver [23]: 7.356%
- Organ weights relative to body weight (%), Ovaries [23]: 0.066%
- Organ weights relative to body weight (%), Spleen [23]: 0.490%
- Organ weights relative to body weight (%), Thymus [23]: 0.220%
- Organ weights relative to body weight (%), U [23]: 0.277%
- clinical chemistry assessment (male and female mice, 25 and 50 mg/kg BID, 2 weeks): no significant toxicological change
- ALB [24]: 2.66
- ALP [24]: 207.96
- ALT [24]: 42.36
- AST [24]: 79.38
- BUN [24]: 19.73
- Basophils [24]: 0.00
- CREA [24]: 0.14
- Eosinophils [24]: 0.67
- GLU [24]: 157.88 mg/dL
- HCT [24]: 31.43%
- HGB [24]: 15.37 g/dL
- LDLC [24]: 10.02 mg/dL
- Lymphocytes [24]: 82.33
- MCH [24]: 23.27 pg
- MCHC [24]: 48.87 g/dL
- MCV [24]: 47.70 fL
- Monosytes [24]: 1.33
- Neutrophils [24]: 15.67
- Organ weights relative to body weight (%), Adrenals [24]: 0.024%
- Organ weights relative to body weight (%), Brain [24]: 2.065%
- Organ weights relative to body weight (%), Epididy [24]: 0.333%
- Organ weights relative to body weight (%), Heart [24]: 0.500%
- Organ weights relative to body weight (%), Kidneys [24]: 1.490%
- Organ weights relative to body weight (%), Liver [24]: 7.093%
- Organ weights relative to body weight (%), Spleen [24]: 0.351%
- Organ weights relative to body weight (%), Testes [24]: 0.582%
- Organ weights relative to body weight (%), Thy [24]: 0.136%
- PLT [24]: 591.33 10^3/μl
- RBC [24]: 6.59
- Reticuloxyte Count [24]: 2.90
- TBIL [24]: 0.09*↓ mg/dL
- TGL [24]: 73.46 mg/dL
- TP [24]: 4.13*↑ g/dL
- Urea [24]: 42.29 mg/dL
- WBC [24]: 3.70*↓ 10^3/μl
- Food consumption, Average Feed Intake/Animal [25]: 9.9 g/animal
- Body weight gain (%) [25]: 3.45%
- Food consumption, Average Feed Intake/Animal [26]: 14.8 g/animal
- Body weight gain (%) [26]: 5.68%
- Food consumption, Average Feed Intake/Animal [27]: 9.5 g/animal
- Body weight gain (%) [27]: 5.86%
- Food consumption, Average Feed Intake/Animal [28]: 10.4 g/animal
- Body weight gain (%) [28]: 7.91%
- ALB [29]: 2.43
- ALP [29]: 180.63
- ALT [29]: 59.72
- AST [29]: 88.76
- BUN [29]: 22.97
- Basophils [29]: 0.00
- CREA [29]: 0.12*↓
- Eosinophils [29]: 0.00
- GLU [29]: 152.77 mg/dL
- HCT [29]: 30.70%
- HGB [29]: 13.73 g/dL
- LDLC [29]: 9.84 mg/dL
- Lymphocytes [29]: 78.00
- MCH [29]: 21.70 pg
- MCHC [29]: 44.77 g/dL
- MCV [29]: 48.40*↑ fL
- Monosytes [29]: 2.00
- Neutrophils [29]: 20.00
- Organ weights relative to body weight (%), Adrenals [29]: 0.030%
- Organ weights relative to body weight (%), Brain [29]: 2.017%
- Organ weights relative to body weight (%), Epididy [29]: 0.298%
- Organ weights relative to body weight (%), Heart [29]: 0.541%
- Organ weights relative to body weight (%), Kidneys [29]: 1.467%
- Organ weights relative to body weight (%), Liver [29]: 7.014%
- Organ weights relative to body weight (%), Spleen [29]: 0.461%
- Organ weights relative to body weight (%), Testes [29]: 0.773%
- Organ weights relative to body weight (%), Thy [29]: 0.116%
- PLT [29]: 661.00 10^3/μl
- RBC [29]: 6.34
- Reticuloxyte Count [29]: 2.67
- TBIL [29]: 0.08*↓ mg/dL
- TGL [29]: 84.42 mg/dL
- TP [29]: 4.19*↑ g/dL
- Urea [29]: 47.30 mg/dL
- WBC [29]: 2.27*↓ 10^3/μl
- Food consumption, Average Feed Intake/Animal [30]: 8.7 g/animal
- Body weight gain (%) [30]: −0.49*1%
- Food consumption, Average Feed Intake/Animal [31]: 14.4 g/animal
- Body weight gain (%) [31]: 3.28%
- Food consumption, Average Feed Intake/Animal [32]: 9.4 g/animal
- Body weight gain (%) [32]: 3.60%
- Food consumption, Average Feed Intake/Animal [33]: 11.0 g/animal
- Body weight gain (%) [33]: 6.21%
- body weight and body weight gain [34]: did not change
- clinical signs [34]: No abnormal clinical signs were detected
- survival [34]: all animals survived to study termination
- tolerable dose (twice daily for 14 consecutive days, oral, C57BL/6 mice): > 50 mg/kg/BID
